Where no end group is shown, it is not given here. The star is where a group is joined. Biotin = O=C1N[C@H]2[C@H](CS[C@H]2CCCCC(=O)*)N1
Assay: Spiropyran modified beads pull-down of biotinylated peptide, residual HRP-streptavidin measured in solution
Format: binding
Settings: beads incubated with 10 μM peptide, washed twice with PBS, 1 μM HRP-conjugated streptavidin; exposed to light at time=60 minutes
Description: FIG. 3 is a line graph representing binding of peptides to beads selectively modified with a spiropyran molecule. The selectively modified beads were incubated with 10 μM of peptide B7, LAGPQMHGK (SEQ ID NO: 62), for the indicate length of time, and then washed twice with phosphate buffered saline (PBS). The beads were when incubated with 1 μM horseradish (HRP)-conjugated streptavidin, and the residual HRP-streptavidin was measured in solution. FIG. 3 illustrates the % absorbance of the beads after the indicated period of time. The higher the absorbance, the higher the concentration of streptavidin in the bulk solution. […]
Wash 1 mL agarose beads with 2 column volumes DMSO (take from bottle in anhydrous fashion). In different container, mix 2.5 mg spiropyran and 80 mg EDC and 100 mg of NHS. Dissolve these compounds in DMSO; wait for 10 minutes at room temp. Add beads (which are now in DMSO) to this mixture. Make sure good mixing/suspension, i.e. enough DMSO to fully suspend the entire matrix. Agitate for 12 hours. Wash modified matrix with DMSO×20 c.v. to wash out free compounds. Remove DMSO with water was ×20 column volumes. Then store in water or 20% ethanol. See FIG. 7 for examples of bead conjugation techniques.

LAGPQMHGK (LAGPQMHGK(Biotin)) [peptide B7, biotinylated peptide aptamer, biotin covalently linked via the amine on the C-terminal lysine residue]
residual HRP-streptavidin in bulk solution (% absorbance) after exposure to light: released back into the bulk solution

— US20170349546A1, “Light-Activated Two-Component Protein Binding Matrix” (National University of Singapore, priority 2014, published 2017)
